Structures are written as SMILES. pEC50: −log10 of the molar value.

In data set [1] the test system is recombinant NL4-3 virus (Renilla luciferase) in MT-2 cells. In words: HIV cell culture assay (antiviral activity, luciferase readout in MT-2 cells). It is filed as cell-based. To be noted: NL43. The procedure:
HIV cell culture assay—MT-2 cells, 293T cells and the proviral DNA clone of NL4-3 virus were obtained from the NIH AIDS Research and Reference Reagent Program. MT-2 cells were propagated in RPMI 1640 media supplemented with 10% heat inactivated fetal bovine serum (FBS), […]. The 293T cells were propagated in DMEM media supplemented with 10% heat inactivated FBS, […]. A recombinant NL4-3 proviral clone, in which a section of the nef gene was replaced with the Renilla luciferase gene, was used to make the reference virus used in these studies. The recombinant virus was prepared through transfection of the recombinant NL4-3 proviral clone into 293T cells using Transit-293 Transfection Reagent from Mirus Bio LLC (Madison, Wis.). Supernatant was harvested after 2-3 days and the amount of virus present was titered in MT-2 cells using luciferase enzyme activity as a marker by measuring luciferase enzyme activity. Luciferase was quantitated using the EnduRen Live Cell Substrate from Promega (Madison, Wis.). Antiviral activities of compounds toward the recombinant virus were quantified by measuring luciferase activity in MT-2 cells infected for 4-5 days with the recombinant virus in the presence of serial dilutions of the compound.
The 50% effective concentration (EC50) was calculated by using the exponential form of the median effect equation where (Fa)=1/[1+(ED50/drug conc.)m] (Johnson V A, Byington R T. Infectivity Assay. In Techniques in HIV Research. ed. Aldovini A, Walker B D. 71-76. New York: Stockton Press. 1990). The 50% inhibitory concentration (EC50) was calculated by using the exponential form of the median effect equation where percent inhibition=1/[1+(EC50/drug concentration)m], where m is a parameter that reflects the slope of the concentration-response curve.

Data set [2] in a line: Compound cytotoxicity, XTT-based colorimetric assay. It is filed as cell-based. To be noted: human; uninfected MT2 cells, day 4, XTT. The procedure: Compound cytotoxicity and the corresponding CC50 values were determined using the same protocol as described in the antiviral assay except that uninfected cells were used. Cytotoxicity was assessed on day 4 in uninfected MT2 cells by using a XTT (2,3-bis[2-Methoxy-4-nitro-5-sulfophenyl]-2H-tetrazolium-5-carboxyanilide inner salt)-based colorimetric assay (Sigma-Aldrich, St Louis, Mo.).

As to `Cn1nc(NS(C)(=O)=O)c2c(Cl)ccc(-n3c([C@H](Cc4cc(F)cc(F)c4)NC(=O)Cn4nc(C(F)F)c5c4C(F)(F)[C@@H]4C[C@H]54)nc4cc(OCCC(C)(C)C(F)(F)F)ccc4c3=O)c21` (atropisomer, axis not shown; (P)) [Example 14, N—((S)-1-((3P)-3-(4-chloro-1-methyl-3-(methylsulfonamido)-1H-indazol-7-yl)-4-oxo-7-(4,4,4-trifluoro-3,3-dimethylbutoxy)-3,4-dihydroquinazolin-2-yl)-2-(3,5-difluorophenyl)ethyl)-2-((3bS,4aR)-3-(difluoromethyl)-5,5-difluoro-3b,4,4a,5-tetrahydro-1H-cyclopropa[3,4]cyclopenta[1,2-c]pyrazol-1-yl)acetamide], the pEC50 in data set [1] is 9.64. The compound also showed a 50% cytotoxic concentration (CC50) at 4 days in data set [2] of over 500 nM.

Regarding `Cn1nc(NS(C)(=O)=O)c2c(Cl)ccc(-n3c([C@H](Cc4cc(F)cc(F)c4)NC(=O)Cn4nc(C(F)F)c5c4C(F)(F)[C@@H]4C[C@H]54)nc4cc(OCCOC(F)F)ccc4c3=O)c21` (atropisomer, axis not shown; (P)) [Example 15, N—((S)-1-((3P)-3-(4-chloro-1-methyl-3-(methylsulfonamido)-1H-indazol-7-yl)-7-(2-(difluoromethoxy)ethoxy)-4-oxo-3,4-dihydroquinazolin-2-yl)-2-(3,5-difluorophenyl)ethyl)-2-((3bS,4aR)-3-(difluoromethyl)-5,5-difluoro-3b,4,4a,5-tetrahydro-1H-cyclopropa[3,4]cyclopenta[1,2-c]pyrazol-1-yl)acetamide], in data set [1], the pEC50 is 10.29. In data set [2], this compound showed a half-maximal cytotoxic concentration (CC50) at 4 days of over 500 nM.

These data come from patent US20210403465A1, “QUINAZOLINYL-INDAZOLE DERIVATIVES AND THEIR USE AS INHIBITORS OF HUMAN IMMUNODEFICIENCY VIRUS REPLICATION” (ViiV HEALTHCARE UK (NO.5) LIMITED, priority 2018, published 2021).
